Assay results from patent US6818656B2, “Method and composition for treatment of irritable bowel disease” (University of Florida, priority 2001, dated 2004).

System: stress-induced fecal output
Assay: Psychological stress-induced (water avoidance) IBS model, SC administration
Format: in vivo
Settings: for Stool Output: 6-h collection
Description: For drug preparation and administration, the compounds were put into solution with sterile normal saline and sonicated briefly, if necessary. The drugs were made up at concentrations such that the rats received the drugs PO or SC at the rate of 1 cc per kilogram. Mice received the CHX(3,4,3)-trans IP at 1 cc per 100 grams. The solutions were made fresh the day of the study. Control animals received an equivalent amount of saline PO or SC.
Animal care and experimental procedures were approved by the Institutional Animal Care and Use Committee. Male Sprague-Dawley rats (250-350 g, Harlan Sprague-Dawley, Indianapolis, Ind.) were housed in polycarbonate cages in a temperature- and humidity-controlled room with a 12-hour light/dark cycle. The experiments were performed at the same time of the day to decrease diurnal variability. A typical experiment involved 20 rats: 5 saline-treated controls and 5 pretreated with polyamine analogues at each of three doses as either a SC injection or a PO gavage. The rats in the SC studies and in one set of experiments involving PO administration were allowed ad libitum access to a standard rodent diet and tap water until the morning of the experiment. Stress was initiated 30 minutes post drug as described below. In another set of experiments involving PO administration, the animals were fasted overnight but were allowed free access to water. […] In a final experiment, non-stressed control rats were injected with saline SC and housed in individual polycarbonate cages. The fecal output (number of pellets) of the stressed and unstressed animals was recorded at 30-min intervals for a 6-h period, during which they received no food or water.
To initiate the stress, water was added to each cage to a depth of at least 4.5 cm, i.e., within 0.5 cm of the top of the Pyrex dish. To avoid contact with water, the rats stand on the glass dish for the 6 h of the study. Stool output was expressed as the total number of fecal pellets excreted over the 6-h collection period. Percent reduction was calculated by dividing the mean value from the treated animals (T) by the mean value from the control animals (C), subtracting the resulting quotient from 1.0, and multiplying by 100 [i.e., (1.0−T/C)×100].
A one-tailed t-test assuming unequal variance was performed on the stool output data of the treated vs control (0 mg/kg) animals for each compound. A value of P<0.05 was considered significant.
The psychological stress-induced IBS model involves subjecting the rats to an aversive stimulus (water) and observing the increase in fecal output over a period of time. […] Control rats received an equivalent amount of saline SC.

[1] = 2.3 μmol/kg SC, stress 30 min post drug
[2] = Rattus norvegicus, 2.3 μmol/kg SC, vs stressed controls, 6 h, read-out: % Reduction
[3] = Rattus norvegicus, 11.6 μmol/kg SC, vs stressed controls, 6 h, read-out: % Reduction
[4] = Rattus norvegicus, 23.2 μmol/kg SC, vs stressed controls, 6 h, read-out: % Reduction
[5] = Rattus norvegicus, 57.8 μmol/kg SC, vs stressed controls, 6 h, read-out: % Reduction

SMILES | Stool Output [1] | Stool Output (11.6 μmol/kg SC) | Stool Output (57.8 μmol/kg SC) | Stool Output (23.2 μmol/kg SC) | inhibition in vivo at 57.8 µmol/kg [5] [%] | also measured
CC(C)NCCCNCCCNCCCNC(C)C [Compound 2] | 17.6 ± 5.5 number of fecal pellets | 13.6 ± 3.2 number of fecal pellets | 7.4 ± 3.6 number of fecal pellets | – | – | activity at diminishing stress-induced fecal output (in words) (SC administration to stressed rats): ineffective
CCCNCCCNCCCCNCCCNCCC [Compound 4] | 11.4 ± 7.2 number of fecal pellets | 11.5 ± 8.7 number of fecal pellets | 0.2 ± 0.4 number of fecal pellets | 5.7 ± 4.1 number of fecal pellets | 99 | inhibition in vivo at 2.3 µmol/kg [2]: 49%; inhibition in vivo at 11.6 µmol/kg [3]: 48%; inhibition in vivo at 23.2 µmol/kg [4]: 74%
CC(C)CNCCCNCCCCNCCCN [Compound 8] | 14.8 ± 3.8 number of fecal pellets | 11.2 ± 2.2 number of fecal pellets | – | 10.6 ± 2.9 number of fecal pellets | – | toxic effects observed in stressed rats (23.2 μmol/kg SC): ^gToxic effects were evident, including huddling in the corner of the cage.; inhibition in vivo at 2.3 µmol/kg [2]: 30%; inhibition in vivo at 11.6 µmol/kg [3]: 47%; inhibition in vivo at 23.2 µmol/kg [4]: 50%
c1ccc(CNCCCNCCCCNCCCNCc2ccccc2)cc1 [Compound 10] | 12.6 ± 4.8 number of fecal pellets | 11.6 ± 2.9 number of fecal pellets | 8.4 ± 1.5 number of fecal pellets | – | 55 | –
FC(F)(F)c1ccccc1CCNCCCNCCCCNCCCNCCc1ccccc1C(F)(F)F [Compound 11] | 12.4 ± 2.1 number of fecal pellets | 13.6 ± 5.1 number of fecal pellets | – | 11.4 ± 2.1 number of fecal pellets | – | –
CCNCCCCCCNCCCNCCCNCC [Compound 16] | – | – | 0.4 ± 0.9 number of fecal pellets | – | 97 | Stool Output (2.31 μmol/kg SC): 10.4 ± 5.2 number of fecal pellets; Stool Output (11.56 μmol/kg SC): 9.4 ± 4.1 number of fecal pellets; toxic effects observed in stressed rats (57.8 μmol/kg SC): ^iThe rats were quite lethargic, as though sedated, after drug administration.
CC(C)NCCCCCCNCCCNCCCNC(C)C [Compound 17] | – | – | 0 ± 0 number of fecal pellets | – | 100 | toxic effects observed in stressed rats (2.32 μmol/kg SC): ^iThe rats were quite lethargic, as though sedated, after drug administration.; Stool Output (2.32 μmol/kg SC): 1.4 ± 1.9 number of fecal pellets; toxic effects observed in stressed rats (11.56 μmol/kg SC): ^iThe rats were quite lethargic, as though sedated, after drug administration.; Stool Output (11.56 μmol/kg SC): 0 ± 0 number of fecal pellets; toxic effects observed in stressed rats (57.8 μmol/kg SC): ^iThe rats were quite lethargic, as though sedated, after drug administration.; inhibition in vivo at 2.32 µmol/kg (Rattus norvegicus, 2.32 μmol/kg SC, vs stressed controls, 6 h, read-out: % Reduction): 84%; inhibition in vivo at 11.56 µmol/kg (Rattus norvegicus, 11.56 μmol/kg SC, vs stressed controls, 6 h, read-out: % Reduction): 100%
